From patent US4349562A, “Substituted 2-pyrrolidinones” (Hoffmann-La Roche Inc., priority 1978, dated 1982)
Like-named read-outs stand apart in the source and are kept apart here.

What was measured:
untrained rats = assay: Posthypercapnic "avoidance" acquisition (shuttle box); type: in vivo; settings: Rattus norvegicus, carbon dioxide 12 seconds, read-out: Minimum active dosage
Description: (§1) The ability of the compounds of formula I to counteract experimentally produced cerebral insufficiency in mammals was determined by means of test procedures which are described hereinafter:
POSTHYPERCAPNIC "AVOIDANCE" ACQUISITION
The test apparatus is a "shuttle box" having a 10 cm high hurdle in the middle and an electrifiable grid floor. A loudspeaker is mounted in the soundproof chamber. One group of untrained rats (120-150 g.) is injected with a test preparation and a second group is injected with a control preparation. One or three hours after administration, each group is placed in a pure carbon dioxide environment for 12 seconds. A third group of 10 rats is treated neither with the test preparation nor with carbon dioxide. Three minutes after treatment with carbon dioxide the rats of all three groups must learn an escape response and an avoidance response in the "shuttle box" in the following sequence: 10 seconds silence, 5 seconds noise ("avoidance response"), 15 seconds noise+foot-shock ("escape response"). The sequence is repeated six times. For each of the six experiments the reaction time (time until the rat jumps over the hurdle) of each rat is measured and the statistical significance of the differences between the mean group reaction times is calculated by means of the Mann-Whitney U-test.

Acute toxicity in mice = settings: mouse, in vivo, po
From the text: The acute toxicities of the compounds of formula I in mice are as follows: […]

untrained male rats = assay: "Passive avoidance" test with electroshock amnesia; type: in vivo; settings: Rattus norvegicus, ip, 3 h, i.p., electric shock, retention time after three hours, read-out: minimum active dosage
Description: as §1
"PASSIVE AVOIDANCE" TEST WITH ELECTROSHOCK AMNESIA
The test apparatus is a Skinner box having an electrifiable grid floor with a grey quadrangular platform in one corner. Untrained male rats weighing 100-200 g are placed on the platform. When the rats climb down onto the grid floor they receive an electric shock. […] Immediately after acquisition of the passive avoidance response three groups of 20 rats each are formed. One group receives an electric shock between the ears and i.p. injection of the test preparation. The second group receives an electric shock between the ears and an i.p. injection of sodium chloride. The third group receives only an i.p. injection of sodium chloride. After three hours, each rat is placed on the platform once and the retention time, that is, the time the rat remains on the platform (maximum 60 seconds), is measured. The significant activity of the test preparation in comparison to the two control groups is calculated by means of the Rang Test.

[1] = tested on: squirrel monkeys (Saimiri sciureus); assay: Inhibition of haloperidol-induced "knock out" in a "continuous avoidance" test sequence; type: in vivo, squirrel monkey (Saimiri sciureus); settings: in Primates, ip, before haloperidol 1.0 mg/kg p.o., delay in knock-out time, read-out: minimum active dosage
Description: as §1
INHIBITION OF HALOPERIDOL-INDUCED "KNOCK OUT" IN A "CONTINUOUS AVOIDANCE" TEST SEQUENCE
Male, untrained squirrel monkeys (Saimiri sciureus), each weighing 0.6 to 1.2 kg, are trained in a two-lever Skinner box in the following "continuous avoidance" sequence: "avoidance-shock", interval 40 seconds; "shock-shock", interval 20 seconds; foot-shock, maximum 5 seconds. Monkeys having a normal baseline performance receive haloperidol 1.0 mg/kg p.o. to determine the "knock-out" time (blocking of "avoidance and escape"). Monkeys having stable "knock-out" times are selected for the evaluation of test preparations as a potential cerebral insufficiency improver. The test preparations can be injected at various times before the treatment with haloperidol.
A dosage of a test preparation is considered to be active, if the administration before the treatment with haloperidol, produces a significant delay in the "knock-out" time. The test preparation is administered at different times prior to treatment with haloperidol.

Question: For `COc1cccc(CN2CCCC2=O)c1` [m-Methoxybenzyl], which minimal effective dose (untrained rats; ip, after 3 hours) is on record?
Answer: Its minimal effective dose is 50 mg/kg.

Question: And the LD50 (Acute toxicity in mice)?
Answer: Its LD50 is 1250 to 2500 mg/kg.

Question: What does the source list for `COc1ccccc1C(=O)N1CCCC1=O` [o-Methoxybenzoyl]?
Answer: minimal effective dose (untrained rats; ip, after 1 hour): 30 mg/kg; minimal effective dose (untrained rats; po, after 1 hour): 100 mg/kg; LD50 (Acute toxicity in mice): 5000 mg/kg

Question: Which minimal effective dose (untrained rats; ip, after 1 hour) does the source give for `O=C1CCCN1Cc1ccc(F)cc1` [p-Fluorobenzyl] here?
Answer: Its minimal effective dose is 50 mg/kg.

Question: And the minimal effective dose (untrained rats; po, after 1 hour)?
Answer: Its minimal effective dose is 300 mg/kg.

Question: And the LD50 (Acute toxicity in mice)?
Answer: Its LD50 is 1000 to 2000 mg/kg.

Question: For `COc1ccc(CN2CCCC2=O)cc1` [p-Methoxybenzyl, 1-(p-methoxybenzyl)-2-pyrrolidinone], which minimal effective dose (untrained rats; ip, after 1 hour) is on record?
Answer: The minimal effective dose was 10 mg/kg.

Question: What about the minimal effective dose (untrained rats; po, after 1 hour) of the same compound?
Answer: Its minimal effective dose is 50 mg/kg.

Question: What about the minimal effective dose (untrained male rats) of the same compound?
Answer: The minimal effective dose was 50 mg/kg.

Question: And the minimal effective dose [1]?
Answer: The minimal effective dose was 1 mg/kg.

Question: And the LD50 (Acute toxicity in mice)?
Answer: The LD50 was 2000 to 4000 mg/kg.
